Assay results taken from ChEMBL document CHEMBL1201862, “PubChem BioAssay data set” (2004).
The source made the active and inactive calls.

What was measured:
[1] = A Cell Based Secondary Assay To Explore Cytotoxicity of Compounds that Sensitize Mycobacterium Tuberculosis to Beta-Lactam Antibiotics.; assay type: functional
[2] = target: Cytochrome P450 3A4 (Homo sapiens, UniProt P08684);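 also: CYP3A4 tested as one member of a cytochrome P450 panel screen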
[3] = cytotoxicity in HEK-293T cells, dose response, cytotoxicity control for BCR NF-kB inhibitor project, luminescence, B-cell screen hits (AID 489021); assay type: functional, cell-based;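 also: HEK-293T cells carrying an NF-kB luciferase reporter; cells exposed to compound for about 14 hours before viability readout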
[4] = target: T1, Microphthalmia-associated transcription factor (Homo sapiens, UniProt O75030); experiment: TRPM1 promoter luciferase signal decrease, dose response, MITF inhibitor project, cell-based, SK-MEL-5, cherry-picked, set 3 (AID 493073); assay type: functional
T1 sequence (O75030 whole entry): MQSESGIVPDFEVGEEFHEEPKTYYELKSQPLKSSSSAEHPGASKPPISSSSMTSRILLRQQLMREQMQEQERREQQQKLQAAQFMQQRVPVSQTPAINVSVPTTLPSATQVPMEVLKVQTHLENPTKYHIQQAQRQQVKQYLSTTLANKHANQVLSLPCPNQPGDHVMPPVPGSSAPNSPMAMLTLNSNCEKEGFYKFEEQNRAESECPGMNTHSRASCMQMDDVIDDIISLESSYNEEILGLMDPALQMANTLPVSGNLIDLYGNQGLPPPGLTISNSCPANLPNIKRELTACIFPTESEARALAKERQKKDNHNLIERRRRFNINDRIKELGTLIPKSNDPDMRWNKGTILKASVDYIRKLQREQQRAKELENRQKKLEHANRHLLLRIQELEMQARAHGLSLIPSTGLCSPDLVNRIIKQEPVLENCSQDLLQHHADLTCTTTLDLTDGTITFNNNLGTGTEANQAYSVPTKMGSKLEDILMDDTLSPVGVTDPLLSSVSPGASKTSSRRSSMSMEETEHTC

[5] = target: T2, Heat shock factor protein 1 (Mus musculus, UniProt P38532); experiment: inhibition of MG132-induced HSE-luciferase signal, confirmation, cell-based, NIH3T3, luminescence, dose retest (AID 2382); assay type: functional;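 also: NIH3T3 fibroblasts with HSF1-driven luciferase reporter stressed by proteasome inhibitor MG132; luminescence from HSF1-driven luciferase expression after 8 hours of MG132 stress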
T2 sequence (P38532 whole entry): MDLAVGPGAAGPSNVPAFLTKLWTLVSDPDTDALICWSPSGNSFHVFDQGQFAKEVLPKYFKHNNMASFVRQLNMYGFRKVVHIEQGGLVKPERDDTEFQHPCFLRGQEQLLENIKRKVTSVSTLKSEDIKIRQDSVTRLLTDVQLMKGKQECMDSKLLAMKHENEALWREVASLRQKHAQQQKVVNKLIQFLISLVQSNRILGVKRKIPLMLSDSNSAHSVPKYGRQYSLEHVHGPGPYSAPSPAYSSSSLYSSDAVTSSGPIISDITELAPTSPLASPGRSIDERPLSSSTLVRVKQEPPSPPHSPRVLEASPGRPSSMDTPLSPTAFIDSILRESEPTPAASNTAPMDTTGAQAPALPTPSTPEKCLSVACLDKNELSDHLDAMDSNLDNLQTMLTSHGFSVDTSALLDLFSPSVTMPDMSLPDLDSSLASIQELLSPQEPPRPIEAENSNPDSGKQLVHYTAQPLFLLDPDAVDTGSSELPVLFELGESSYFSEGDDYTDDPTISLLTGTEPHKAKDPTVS

[6] = growth suppression of beta-catenin-knockout colon cells, dose response, cell-based, HCT116, human colon tumor (AID 1045); assay type: functional;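 also: HCT116 colon tumor cells with beta catenin knocked out; cells exposed to compound for 60 hours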
[7] = target: T3, Short transient receptor potential channel 4 (Mus musculus, UniProt Q9QUQ5); experiment: mouse TRPC4 channel inhibitors, dose response, cell-based, HEK293 TRPC4/mu-opioid, Fluo-4 calcium (AID 434942); assay type: functional;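 also: potency of inhibitors blocking the TRPC4 calcium response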
T3 sequence (Q9QUQ5 whole entry): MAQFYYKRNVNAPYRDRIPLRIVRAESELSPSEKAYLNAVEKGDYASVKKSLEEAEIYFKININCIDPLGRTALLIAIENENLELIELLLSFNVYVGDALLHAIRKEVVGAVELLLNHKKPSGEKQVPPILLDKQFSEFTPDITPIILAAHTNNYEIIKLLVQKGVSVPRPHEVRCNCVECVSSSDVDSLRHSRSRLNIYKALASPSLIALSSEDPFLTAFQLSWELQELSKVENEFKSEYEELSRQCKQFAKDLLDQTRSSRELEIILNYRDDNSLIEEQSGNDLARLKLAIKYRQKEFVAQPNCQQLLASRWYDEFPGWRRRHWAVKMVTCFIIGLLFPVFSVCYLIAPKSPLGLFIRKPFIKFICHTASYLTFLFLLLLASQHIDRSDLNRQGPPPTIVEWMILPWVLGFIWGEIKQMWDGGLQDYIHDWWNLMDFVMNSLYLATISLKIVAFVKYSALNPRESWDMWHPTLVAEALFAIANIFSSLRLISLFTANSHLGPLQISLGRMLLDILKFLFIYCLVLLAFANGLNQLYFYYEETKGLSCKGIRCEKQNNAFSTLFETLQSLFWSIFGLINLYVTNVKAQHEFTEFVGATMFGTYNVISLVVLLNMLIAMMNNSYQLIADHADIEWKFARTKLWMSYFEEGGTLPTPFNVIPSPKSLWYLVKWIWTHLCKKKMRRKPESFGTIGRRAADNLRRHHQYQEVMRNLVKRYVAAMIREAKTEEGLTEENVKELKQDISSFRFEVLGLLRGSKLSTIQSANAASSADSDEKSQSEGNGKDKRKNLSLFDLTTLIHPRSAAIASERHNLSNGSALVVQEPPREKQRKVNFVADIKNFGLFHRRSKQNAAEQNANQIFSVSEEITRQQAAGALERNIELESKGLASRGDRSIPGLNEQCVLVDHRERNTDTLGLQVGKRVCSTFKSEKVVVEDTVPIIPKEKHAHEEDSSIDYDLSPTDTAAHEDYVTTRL

[8] = inhibitors of intracellular T. cruzi replication, confirmation, NIH3T3 host cells, beta-gal luminescence (AID 2044); assay type: functional, cell-based;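 also: intracellular parasites grown in NIH/3T3 mouse fibroblasts as host cells; luminescent beta-galactosidase reporter signal from transgenic T. cruzi replicating inside host cells; inhibitors lower the luminescence signal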
[9] = cytotoxicity toward NIH3T3 fibroblasts, dose response, counter-screen, cell-based, ATP luminescence, mouse fibroblasts (AID 2010); assay type: functional;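 also: cells exposed to compound for about 90 hours before reading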
[10] = target: T2, Heat shock factor protein 1; experiment: HSF1 potentiators in luciferase reporter cells, confirmation, cell-based, NIH3T3, luminescence, dose retest (AID 435004); assay type: functional;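 also: stress induced by proteasome inhibitor MG132 added 30 min after compound; luciferase reporter driven by HSF1 response element in NIH3T3 cells; actives raise luminescence as potentiators of the MG132 stress response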
[11] = growth suppression of PTEN-null colon cells, dose response, cell-based, HCT116 PTEN knockout (AID 1047); assay type: functional;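 also: HCT116 colon tumor cells with PTEN knocked out; cells exposed to compound for 60 hours before readout; potency for loss of cell viability measured by luminescence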
[12] = NIH-3T3 fibroblast cytotoxicity, dose response, cytotoxicity control, cell-based, fluorescence, Alamar Blue, secondary assay (AID 2327); assay type: functional;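 also: NIH-3T3 mouse fibroblasts cultured with fluconazole at 8 µg/mL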
[13] = tested on: INS1; experiment: beta cell apoptosis inhibitors, cytokine rescue, dose response, luminescence, retest (AID 449756); assay type: functional, cell-based; conditions: Rattus norvegicus;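 also: cell death triggered by IL-1 beta plus TNF-alpha plus IFN-gamma mixture; protective hits raise ATP signal compared with cytokine alone wells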
[14] = C. albicans growth with fluconazole, confirmation, fluorescence, retest (AID 2467); assay type: functional, cell-based
[15] = tested on: BJ; experiment: cells; assay type: functional, cell-based; conditions: Homo sapiens
[16] = cytotoxicity in HEK-293T cells, dose response, cytotoxicity control for TCR NF-kB inhibitor project, luminescence, T-cell screen hits (AID 489026); assay type: functional, cell-based;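 also: cells exposed to compound about 14 hours before the viability readout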
[17] = cytotoxicity toward DRD oncogenic fibroblasts, dose response, cell-based, non-viral oncogenic, luminescence (AID 1934); assay type: functional; conditions: Homo sapiens
[18] = tested on: BJ; experiment: cytotoxicity toward BJ-TERT fibroblasts, dose response, cell-based, RAS-independent, luminescence (AID 1933); assay type: functional; conditions: Homo sapiens
[19] = tested on: BJ; experiment: cytotoxicity toward BJ-TERT-LT-ST fibroblasts, dose response, cell-based, RAS-independent, luminescence (AID 1935); assay type: functional; conditions: Homo sapiens;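 also: BJ fibroblasts immortalized with TERT plus LT and ST oncogenes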
[20] = cells; assay type: functional
[21] = target: Glucose-6-phosphate 1-dehydrogenase (Homo sapiens, UniProt P11413); experiment: human G6PD enzyme inhibitors, dose response, selectivity assay for P. falciparum G6PD inhibitor project, biochemical, fluorescence (AID 504792); assay type: functional
[22] = THP-1 cell cytotoxicity, dose response, cytotoxicity control for non-replicating M. tuberculosis project (AID 489025); assay type: functional
[23] = microbe, parasite or virus in culture; assay type: functional; conditions: Mycobacterium tuberculosis
[24] = Vero E6 cell cytotoxicity, dose response, cytotoxicity control for non-replicating M. tuberculosis project, secondary assay (AID 492998); assay type: functional, VeroE6; conditions: Vero C1008
[25] = target: Induced myeloid leukemia cell differentiation protein Mcl-1 (Homo sapiens, UniProt Q07820); assay type: functional
[26] = target: Genome polyprotein (dengue virus type 2, UniProt P29990); experiment: Dengue-2 NS5 methyltransferase inhibitors, primary screen, biochemical, confirmation dose response (AID 588689); assay type: functional
[27] = tested on: Vero; experiment: cells; assay type: functional; conditions: Chlorocebus sabaeus

Glucose-6-phosphate 1-dehydrogenase, sequence (P11413 whole entry): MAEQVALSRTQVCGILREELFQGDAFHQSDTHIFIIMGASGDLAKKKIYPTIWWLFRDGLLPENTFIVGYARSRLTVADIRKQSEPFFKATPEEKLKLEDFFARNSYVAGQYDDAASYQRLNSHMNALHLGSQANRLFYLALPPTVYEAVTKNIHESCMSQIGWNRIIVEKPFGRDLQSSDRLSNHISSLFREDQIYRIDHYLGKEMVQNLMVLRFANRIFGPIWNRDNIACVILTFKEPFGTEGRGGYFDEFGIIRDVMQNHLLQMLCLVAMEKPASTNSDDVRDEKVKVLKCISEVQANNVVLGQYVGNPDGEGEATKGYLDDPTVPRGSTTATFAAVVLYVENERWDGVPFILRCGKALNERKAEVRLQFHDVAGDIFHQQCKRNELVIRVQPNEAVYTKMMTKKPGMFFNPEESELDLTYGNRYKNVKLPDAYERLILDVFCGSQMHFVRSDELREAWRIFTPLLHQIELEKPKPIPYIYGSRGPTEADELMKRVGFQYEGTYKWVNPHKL
Genome polyprotein, sequence (P29990 2492-3391 limits assumed): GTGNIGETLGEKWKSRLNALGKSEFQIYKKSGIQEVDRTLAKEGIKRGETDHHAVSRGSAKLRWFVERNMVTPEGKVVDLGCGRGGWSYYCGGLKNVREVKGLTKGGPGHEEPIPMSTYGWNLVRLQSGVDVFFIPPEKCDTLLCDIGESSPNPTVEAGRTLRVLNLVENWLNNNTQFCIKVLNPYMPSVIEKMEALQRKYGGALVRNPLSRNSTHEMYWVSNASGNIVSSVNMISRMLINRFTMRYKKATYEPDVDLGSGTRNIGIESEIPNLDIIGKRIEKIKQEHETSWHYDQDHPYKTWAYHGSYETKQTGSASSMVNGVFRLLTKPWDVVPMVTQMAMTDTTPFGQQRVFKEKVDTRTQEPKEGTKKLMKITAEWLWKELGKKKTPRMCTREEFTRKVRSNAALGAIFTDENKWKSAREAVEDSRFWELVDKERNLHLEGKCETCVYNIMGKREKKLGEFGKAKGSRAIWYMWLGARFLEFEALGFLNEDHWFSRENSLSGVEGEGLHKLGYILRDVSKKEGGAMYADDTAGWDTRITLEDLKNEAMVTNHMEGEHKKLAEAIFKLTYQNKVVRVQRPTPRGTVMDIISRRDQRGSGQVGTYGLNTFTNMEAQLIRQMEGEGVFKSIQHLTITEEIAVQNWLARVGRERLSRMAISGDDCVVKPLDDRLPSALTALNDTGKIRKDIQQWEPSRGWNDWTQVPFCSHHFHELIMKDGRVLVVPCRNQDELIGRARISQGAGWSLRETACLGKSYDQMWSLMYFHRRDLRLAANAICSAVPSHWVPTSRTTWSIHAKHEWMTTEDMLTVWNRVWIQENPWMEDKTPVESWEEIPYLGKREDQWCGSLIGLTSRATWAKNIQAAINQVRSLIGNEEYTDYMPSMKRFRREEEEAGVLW
Induced myeloid leukemia cell differentiation protein Mcl-1, sequence (Q07820 whole entry): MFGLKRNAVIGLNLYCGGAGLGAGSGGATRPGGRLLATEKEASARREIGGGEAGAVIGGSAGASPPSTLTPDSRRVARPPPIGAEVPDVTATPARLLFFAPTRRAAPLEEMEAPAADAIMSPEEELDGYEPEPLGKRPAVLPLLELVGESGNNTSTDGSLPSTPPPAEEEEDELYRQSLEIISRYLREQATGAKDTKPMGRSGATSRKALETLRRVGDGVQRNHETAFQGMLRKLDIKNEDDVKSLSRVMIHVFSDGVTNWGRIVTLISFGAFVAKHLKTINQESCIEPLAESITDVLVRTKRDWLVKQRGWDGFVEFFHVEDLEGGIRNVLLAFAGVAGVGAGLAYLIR
Cytochrome P450 3A4, sequence (P08684 whole entry): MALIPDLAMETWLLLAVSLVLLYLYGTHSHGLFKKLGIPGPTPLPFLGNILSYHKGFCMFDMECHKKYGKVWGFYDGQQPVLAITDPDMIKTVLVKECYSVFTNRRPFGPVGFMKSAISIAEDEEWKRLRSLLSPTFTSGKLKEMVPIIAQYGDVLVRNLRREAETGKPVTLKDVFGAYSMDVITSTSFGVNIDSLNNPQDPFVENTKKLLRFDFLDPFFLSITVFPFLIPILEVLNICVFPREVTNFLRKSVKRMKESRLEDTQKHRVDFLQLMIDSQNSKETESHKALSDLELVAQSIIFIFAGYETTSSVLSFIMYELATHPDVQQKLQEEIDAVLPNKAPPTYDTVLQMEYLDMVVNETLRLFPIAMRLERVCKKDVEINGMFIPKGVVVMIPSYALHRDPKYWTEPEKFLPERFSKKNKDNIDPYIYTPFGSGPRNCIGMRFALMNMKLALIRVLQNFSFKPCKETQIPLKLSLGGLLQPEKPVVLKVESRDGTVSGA

Nc1c(C(=O)N2CCCC2)sc2nc3c(cc12)CCCCCC3
CC50 [1]: > 40 µM (active)

O=C(c1csnn1)N1CCC2(CC1)CN(c1ccccn1)C2
AC50 [2]: inconclusive

O=C1CCC2S/C(=C/Nc3ccc(C(F)(F)F)cc3)C(=O)N12 (centres undefined)
IC50 [3]: > 80 µM (inactive) | AC50 [4]: 3.57 µM (active) | EC50 [5]: 2.44 µM (active)

CC#CC[N+](C)(C)CCCCCCCCCCCC
EC50 [6]: 5.82 µM (active) | EC50 [7]: 1.5 µM (active) | EC50 [8]: 1.05 µM (active) | EC50 [9]: > 30 µM (not active) | CC50 [1]: > 40 µM (active) | EC50 [10]: > 260 µM (inactive) | EC50 [11]: 4.9 µM (active) | EC50 [12]: > 150 µM (inactive) | AC50 [13]: 1.85 µM (active) | EC50 [14]: 2.85 µM (active)

Cc1cccc(NC(=O)Cn2c(=O)n(Cc3ccccc3)c(=O)c3c(C)c(C)sc32)c1
CC50 [1]: > 40 µM (active)

CCOC(=O)Cc1csc(NC(=S)NC(=O)c2ccc(C)cc2)n1
IC50 [3]: > 80 µM (inactive)

CCOc1ccccc1C1CC(=O)Nc2cc(C)c(C)cc21 (centres undefined)
EC50 [15]: 53.3 µM (active) | IC50 [16]: > 80 µM (inactive) | EC50 [17]: 18.1 µM (active) | EC50 [18]: 14 µM (active) | EC50 [19]: 23.5 µM (active)

CC(C)Cn1c([N+](=O)[O-])nc2c1c(=O)[nH]c(=O)n2C
IC50 [20]: 5.98 µM (active) | IC50 [3]: 47.3 µM (inactive) | IC50 [21]: > 80 µM (inactive) | CC50 [22]: 9.18 µM (active) | CC50 [23]: 12.4 µM (active) | CC50 [24]: 14.6 µM (active)

COC(=O)C1=C(C(=O)OC)C(c2cc(Cl)ccc2O)c2sc(O)nc2S1 (centres undefined)
IC50 [25]: 4.4 µM (active) | IC50 [26]: > 100 µM (active)

O=C1Nc2ccccc2/C1=C/C(=O)c1cccs1
EC50 [6]: 5.7 µM (active) | CC50 [27]: 17.6 µM (active) | IC50 [20]: 8.52 µM (active) | CC50 [22]: 21.1 µM (active) | EC50 [11]: 7.47 µM (active) | EC50 [5]: > 195 µM (not active) | EC50 [12]: > 150 µM (inactive) | EC50 [14]: 1.75 µM (active) | CC50 [24]: 14.4 µM (active)
